These results are taken from publication PMC10840383, “Clinical features, functional consequences, and rescue pharmacology of missense GRID1 and GRID2 human variants” (Human Molecular Genetics, 2023).

Common to all, as to type: cell-based
The target in test [1] is T1, GluD2-A654T (Rattus norvegicus, UniProt Q63226, A654T).
T1 construct: expressed in transfected cells; host or cells: Xenopus laevis oocytes injected with cRNA
T1 sequence (Q63226 24-1007 A654T): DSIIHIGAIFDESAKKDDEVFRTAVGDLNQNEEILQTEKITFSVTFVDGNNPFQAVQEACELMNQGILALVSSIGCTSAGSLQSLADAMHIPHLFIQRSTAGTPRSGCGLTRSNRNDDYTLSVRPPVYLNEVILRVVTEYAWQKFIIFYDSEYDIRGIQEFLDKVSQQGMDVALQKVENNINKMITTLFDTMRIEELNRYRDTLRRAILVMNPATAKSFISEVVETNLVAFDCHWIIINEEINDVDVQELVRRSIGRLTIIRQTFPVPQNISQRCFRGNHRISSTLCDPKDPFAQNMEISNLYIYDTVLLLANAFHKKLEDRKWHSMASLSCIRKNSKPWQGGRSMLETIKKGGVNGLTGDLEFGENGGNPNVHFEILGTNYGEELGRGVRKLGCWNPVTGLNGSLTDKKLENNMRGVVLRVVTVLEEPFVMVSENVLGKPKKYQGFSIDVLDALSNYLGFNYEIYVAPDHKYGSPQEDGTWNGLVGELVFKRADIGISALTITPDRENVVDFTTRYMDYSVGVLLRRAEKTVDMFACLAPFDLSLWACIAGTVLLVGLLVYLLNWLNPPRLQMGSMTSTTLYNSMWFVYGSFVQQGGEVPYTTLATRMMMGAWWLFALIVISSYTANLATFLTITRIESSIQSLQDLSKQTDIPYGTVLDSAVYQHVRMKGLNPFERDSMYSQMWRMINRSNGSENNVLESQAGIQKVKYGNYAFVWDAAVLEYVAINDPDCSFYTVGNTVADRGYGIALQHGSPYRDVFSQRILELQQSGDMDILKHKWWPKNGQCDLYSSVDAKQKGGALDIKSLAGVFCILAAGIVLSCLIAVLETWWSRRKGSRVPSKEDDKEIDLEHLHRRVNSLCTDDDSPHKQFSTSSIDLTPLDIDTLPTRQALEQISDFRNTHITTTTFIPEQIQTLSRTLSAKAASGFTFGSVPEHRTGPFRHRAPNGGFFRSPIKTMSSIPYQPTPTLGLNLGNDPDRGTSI
In words: TEVC of constitutive current, Xenopus oocytes expressing GluD2-A654T (lurcher). Particulars: for IC50: inhibitors of constitutively active GluD2 current, read-out: A654T IC50.

Test [2] concerns the target T2, GluD2-T649A (Rattus norvegicus, UniProt Q63226, T649A).
T2 construct: expressed in transfected cells; host or cells: Xenopus laevis oocytes injected with cRNA
T2 sequence (Q63226 24-1007 T649A): T1 sequence (Q63226 24-1007 A654T) with T626A, T631A
In words: TEVC of constitutive current, Xenopus oocytes expressing GluD2-T649A. Particulars: for IC50: inhibitors of constitutively active GluD2 current, read-out: T649A IC50.

In test [3] the test system is constitutively active GluD1 and GluD2 receptor variants. As to the kind of experiment: Inhibition of constitutive currents of GluD variants by channel blockers, Xenopus oocytes. How it is done: Xenopus laevis oocytes were prepared from ovaries purchased from Xenopus 1 (Dexter, MI) as previously described, [68] and incubated at 16°C in culture Barth’s solution (in mM) 88 NaCl, 2.4 NaHCO3, 1 KCl, 0.33 Ca(NO3)2, 0.41 CaCl2, 0.82 MgSO4, 10 HEPES, pH 7.4 with NaOH, supplemented with 1 U/ml penicillin and 1 μg/ml streptomycin. Oocytes were injected with approximately 5–40 ng RNA per oocyte and then incubated at 16–19°C for 1–3 days in culture Barth’s solution. The levels of GluD2-A654D and GluD2-A654T cRNA were reduced to 1.5 ng and 2.5 ng, respectively, due to oocyte toxicity. Two-electrode voltage clamp (TEVC) recordings were performed as previously described. Unless otherwise specified, extracellular solution contained (in mM) 90 NaCl, 3 KCl, 0.5 BaCl2, 0.01 EDTA, 10 HEPES, and was brought to pH 7.4 with NaOH. The oocytes were placed in a dual track recording chamber and gravity perfused with solution exchange controlled via a computer-driven 8-valve positioner (Digital MVP Valve). […] Recording electrodes were filled with 0.3 M KCl, and currents were recorded with membrane voltage held at −40 mV. To establish constitutive activity of recombinant receptors when compared to wild type receptors, we used the oocyte recording solution described above, but with 90 mM N-methyl-D-glucamine (NMDG) chloride replacing 90 mM NaCl. […] In addition to establishing constitutive activity, 90 mM NMDG was used in recording protocols with drug treatment to obtain the percent maximum theoretical inhibition of a compound, or to determine the relative degree of drug potentiation. For Ca^2+ concentration-response curves, choline chloride was used to maintain equimolar concentrations of Cl^− ions in the extracellular solution across the changing concentrations of calcium chloride. All compounds used in this study for concentration-response oocyte recordings were dissolved in deionized water as 50–100 mM stock solutions. In some rescue pharmacology experiments, we substituted 1 mM CaCl2 for 0.5 mM BaCl2 to evaluate Ca^2+-dependent control of receptor responses.

Each structure is given as a SMILES string. Substitutions are numbered along the chain they refer to.

As to `C[C@@H](N)C(=O)O` [D-Alanine, D-alanine], in test [1], the “Effect on constitutive current, in words” value is “inhibited” and the IC50 (usually the concentration at which inhibition is half-maximal) worked out at 1600 µM. Also, in test [2], the “Effect on constitutive current, in words” value is listed as “inhibited”; the “Fold-shift (IC50 A654T/IC50 T649A)” value turned out to be 1.2; the 50% inhibitory concentration (IC50) is 1300 µM.

Take `NCC(=O)O` [Glycine]: the “Effect on constitutive current, in words” value in test [1] and in test [2] was “inhibited” each time.

As for `N[C@@H](CC(=O)O)C(=O)O` [L-Aspartic Acid, L-aspartic acid], in test [1], the “Effect on constitutive current, in words” value is given as “inhibited” and the concentration for half-maximal inhibition (IC50) is 5000 µM. In test [2], the “Effect on constitutive current, in words” value was “inhibited”; the “Fold-shift (IC50 A654T/IC50 T649A)” value was 19; the IC50 is 270 µM.

As for `CNC1(c2ccccc2Cl)CCCCC1=O` (stereo not shown) [ketamine], the “Inhibition of constitutive currents, in words” value in test [3] was “memantine inhibits GluD receptor constitutively active currents more effectively than ketamine”.
